Measurements as given in patent US20040219102A1, “Compositions for drug delivery” (priority 2003, published 2004).
Where two headings read alike, the source gives them in different places.

Legend:
[1] = tested on: JJ5 Breast Cancer cells; conditions: cultured 4 days
Procedure: The number of cells seeded was varied from 3×10^4 to 3×10^6 cells to obtain approximately 350 viable colonies/dish taking into account the plating efficiency and the expected level of cytotoxicity. Control dishes contained JJ5 breast cancer cells which were incubated with normal saline. Growth medium was added and the cells were cultured at 37° C./5% CO2 for 4 days. The growth medium was removed and the colonies were stained with methylene blue (1% in a 1:1 mixture of ethanol and water) then washed twice. The number of colonies per dish was counted using a manual colony counter (Manostat Corp). The plating efficiency was calculated by dividing the number of colonies observed by the number of cells seeded in each dish.

[2] = tested on: JJ5 Breast Cancer cells; test: Binding of EGF-111In-labeled transferrin composition to breast cancer cells; set-up: species or system human
From the text: For the normal breast cell line HBL-100, 8000 EGFR/cell has been reported. The expression of EGFR in breast cancer cell lines has a reported range of 800 EGFR/cell for MCF-7 cells to 10^6 EGFR/cell for MDA-MB-468 cells. […] Utilizing the Auger electron emitter ^111In was used in the initial experiments to illustrate the utility of the invention using EGF-^111In-labeled transferrin compositions. […] The cells were transferred to a centrifuge tube and centrifuged. The cell pellet was separated from the supernatant and counted in a g-scintillation counter to determine bound (B) and free (F) radioactivity. Non-specific binding was determined by conducting the assay in 100 nM hEGF. […] Internalized fraction was measured by determining the proportion of radioactivity which could not be displaced from the cell surface by 100 nM hEGF. Cell-associated binding (surface-binding and intracellular accumulation) was expressed as a percentage of medium radioactivity bound per mg of cell study protein. […] EGF-^111In-labeled transferrin composition was rapidly bound by the breast cancer cells and retained for at least 24 hours. Over a 24 hour period at 37° C., <8% was lost from the cells in vitro.

[3] = tested on: JJ5 Breast Cancer cells; test: Growth inhibition assay of EGF-111In-labeled transferrin composition against JJ5 breast cancer cells; assay type: cell-based, human; conditions: cultured 4 days
Procedure: JJ5 breast cancer cells (prepared from BCBM JJ5) expressing approximately 10^6 epidermal growth factor receptors/cell were incubated with EGF-^111In-labeled transferrin composition, unlabeled hEGF or ^111In-oxine, centrifuged to remove free ligand, then assayed and seeded (10^6 cells/dish) into 35 mm culture dishes.

[4] = tested on: JJ5 Breast Cancer cells; test: Cytotoxicity (colony-forming) assay of EGF-111In-labeled transferrin composition against JJ5 breast cancer cells; assay type: cell-based, human; conditions: 14 days
Procedure: JJ5 breast cancer cells were incubated with increasing amounts EGF-^111In-labeled transferrin composition or ^111In-oxine, centrifuged to remove free ligand, assayed and then seeded into 50 mm culture dishes. […] The growth medium was removed and the colonies were stained with methylene blue (1% in a 1:1 mixture of ethanol and water) then washed twice.
Using a colony-forming assay, the radiotoxicity of internalization for JJ5 breast cancer cells was evaluated.

With COc1cccc2c1C(=O)c1c(O)c3c(c(O)c1C2=O)C[C@@](O)(C(=O)CO)C[C@@H]3O[C@H]1C[C@H](N)[C@H](O)[C@H](C)O1 [Doxorubicin] the “growth inhibition of the JJ5 cells compared to the medium control” value [1] was 95%.
“EGF-^111In-labeled transferrin composition” was tested, and the “time retained by the breast cancer cells” value ([2]; 37° C.) was “at least 24 hours”, the “affinity constant for binding to JJ5 cells” value ([2]; 37° C., 30 minutes, non-specific binding in 100 nM hEGF) was 8e+08 L/mol and the “number of binding sites” value ([2]; JJ5 cells) was 2.7×10^6. For the same compound, the “111In radioactivity lost from the cells in vitro” value ([2]; over a 24 hour period at 37° C.) was less than 8%, the “growth inhibition of the JJ5 cells compared to the medium control” value ([3]; 3.4 pCi/cell) was 83% and the “reduction in cell survival” value ([4]; 8 pCi/cell) was 99%.
[In+3].[O-]c1cccc2cccnc12.[O-]c1cccc2cccnc12.[O-]c1cccc2cccnc12 [^111In-oxine, reference compound] was tested, and the “growth inhibition of the JJ5 cells compared to the medium control” value ([3]; 3.5 pCi/cell) was 91% and the cell killing ([4]; at <6 pCi/cell) was “greater than 99%”.
